Results taken from patent US20050033035A1, “Mutants of igf binding proteins and methods of production of antagonists thereof” (priority 2001, published 2005).
Where two headings read alike, the source gives them in different places.

Tests used:
[1] = target: IGF-I (Homo sapiens, UniProt P05019); settings: domain of IGFBP-5 residues 40-92; cited from earlier work
[2] = target: IGF-II (Homo sapiens, UniProt P01344); settings: domain of IGFBP-5 residues 40-92; cited from earlier work
[3] = target: T1, complex of IGFBP-5 and IGF-I (Homo sapiens, UniProt P24593); experiment: Release of IGF-I from the complex with IGFBP-5 measured by 125I-IGF-I binding to IGF-R expressing NIH 3T3 cells; format: cell-based; settings: 10 or 100 nM IGFBP-5, 5 pM 125I-IGF-I, FIG. 7
Experimental: Kalus, W., et al., in EMBO J. 17 (1998) 6558-6572, describe the inhibition of the binding of IGF-I to IGF-R expressing NIH 3T3 cells by formation of an inhibitory complex. This assay was used to investigate the release of IGF-I from the inhibitory complex with IGFBP-5.
NIH 3T3 cells stably expressing human IGF-R were grown in culture dishes in Dulbecco's modified Eagle's medium (DMEM) containing 10% fetal calf serum. Cells were washed carefully with PBS and incubated with 5 ml of 50 mM EDTA in PBS for 45 min. Cells were removed from the plate, washed once with PBS and once with binding buffer (100 mM HEPES pH 7.6, 120 mM NaCl, 5 mM KCl, 1.2 mM MgSO 4, 1 mM EDTA, 10 mM glucose, 15 mM sodium acetate, 1% dialysed BSA), and resuspended in binding buffer to determine the cell number. 5 pM ^125 I-IGF-I (Amersham) was preincubated with either 10 or 100 nM IGFBP-5 alone or in combination with 33 μM of the different compounds 1,2,3,4B and 4C at 4° C. for 1 h. Then 400 μl of the cell suspension corresponding to 2×10^5 cells were added to give a total volume of 500 μl. After 12 h incubation at 4° C., cells were washed with binding buffer (at 4° C.). Free hormone was removed by repeated centrifugation and resuspension in the binding buffer. The 125 I radioactivity bound to the cells was determined in a gamma-counter.

[4] = target: T1, complex of IGFBP-5 and IGF-I; experiment: Release of IGF-I from the complex with IGFBP-5 measured by IGF-R activation (autophosphorylation) in NIH 3T3 cells; format: cell-based; settings: FIG. 8
Source text: Kalus, W., et al., in EMBO J. 17 (1998) 6558-6572, describe the inhibition of the activation and autophosphorylation of the IGF-R by IGF-I in the presence of IGFBP-5. This assay was used to further investigate the release of IGF-I from the inhibitory complex with IGFBP-5 by compound 3. Binding of compound 3 to IGFBP-5 and dissociation of the complex of the binding protein with IGF-I should result in an activation and autophosphorylation of the IGF-R in the presence of IGFBP-5.
Confluent monolayers of the NIH 3T3 cells stably expressing human IGF-R in 3.5 cm dishes were starved in DMEM containing 0.5% dialysed fetal calf serum. After 48 h, cells were incubated without any hormone or with 10 nM IGF-I. Samples were preincubated with 100 nM IGFBP-5 and increasing concentrations of compound 3 from 0 to 50 μM at room temperature for 1 h. After a 10 min stimulation at 37° C., the medium was removed and cells were lysed with 250 μl of lysing buffer (20 mM HEPES pH 7.5, 150 mM NaCl, 10% glycerol, 1% NP-40, 1.5 mM MgCl 2, 1 mM EGTA), 10 mM sodium orthovanadate, and protease inhibitor cocktail Complete (Roche Molecular Biochemicals) for 10 min on ice. […] The protein concentration of the supernatant was determined using the BCA kit from Pierce according to the manufacturer's instructions. […]

[5] = target: T2, IGFBP-5 (Homo sapiens, UniProt P24593); experiment: Detection of ligand binding by 15N-HSQC NMR titration
T2 construct: His-tag (N); T7-tag (pET-28a construct only) (N); made in house; host or cells: E. coli BL21
Experimental: Ligand binding was detected by acquiring ^15N—HSQC spectra. All NMR spectra were acquired at 300 K on Bruker DRX600 spectrometer. The samples for NMR spectroscopy were concentrated and dialyzed against PBS buffer. Typically, the sample concentration was varied from 0.3 to 1.0 mM. Before measuring, the sample was centrifuged in order to sediment aggregates and other macroscopic particles. 450 μl of the protein solution were mixed with 50 μl of D2O (5-10%) and transferred to an NMR sample tube. The stock solutions of compounds were 100 mM either in water or in perdeuterated DMSO. pH was maintained constant during the whole titration. The binding was monitored by observation of the changes in the ^15N—HSQC spectrum. Dissociation constants were obtained by monitoring the chemical shift changes of the backbone amide of several amino acid residues (Table 9) as a function of ligand concentration. Data were fit using a single binding site model.

[6] = tested on: tumor growth; settings: 1 mg/dose daily in mice; cited from earlier work
[7] = tested on: MCF-7 cells; settings: in vitro; cited from earlier work
[8] = tested on: MDA-MB-435A cells; settings: in vitro; cited from earlier work
[9] = tested on: MDA-MB-231 cells; settings: in vivo in mice; cited from earlier work
[10] = changes in chemical shift for the residue L81, read-out: KD

T1 sequence (P24593 21-272, one chain of several): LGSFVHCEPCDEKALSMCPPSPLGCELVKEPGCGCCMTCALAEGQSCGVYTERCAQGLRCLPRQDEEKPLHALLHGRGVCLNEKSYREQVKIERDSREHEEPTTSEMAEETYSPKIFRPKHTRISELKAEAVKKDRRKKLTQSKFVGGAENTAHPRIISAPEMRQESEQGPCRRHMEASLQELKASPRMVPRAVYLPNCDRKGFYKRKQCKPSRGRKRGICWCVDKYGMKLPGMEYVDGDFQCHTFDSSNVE
Sequence of IGF-I (P05019 49-118 limits assumed): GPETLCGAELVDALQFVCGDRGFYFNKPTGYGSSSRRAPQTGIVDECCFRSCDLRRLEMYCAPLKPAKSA
Sequence of IGF-II (P01344 25-91 limits assumed): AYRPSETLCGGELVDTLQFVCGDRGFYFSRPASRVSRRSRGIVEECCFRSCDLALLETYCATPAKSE

For “mini-IGFBP-5: domain of IGFBP-5 between residues 40-92 (GSALAEGQSCGVYTERCAQGLRCLPRQDEEKPLHALLHGRGVCLNEKSYREQVKI)”, the Kd [1] is listed as 0.037 µM and the Kd [2] is listed as 0.006 µM.

With O=C(Nc1ccc(S(=O)(=O)F)cc1)c1cc(N=Nc2cc(Cl)ccc2Cl)c2ccccc2c1O [Compound 3, 4-(2,5-Dichlorophenylazo)-4′fluorosulfonyl-1-hydroxy-2-naphthanilide] the “release of IGF-I from the complex and binding of IGF-I to IGF-R expressing cells” value ([3]; 33 μM compound) was “release of IGF-I from the complex” and the “autophosphorylation of IGF-R in presence of inactive complex of IGFBP-5 and IGF-I” value ([4]; 50 uM compound 3, 100 nM IGFBP-5, 10 nM IGF-I) was “increased autophosphorylation of the receptor”.

O=C(N[C@@H](Cc1ccccc1)C(=O)O)OCC1c2ccccc2-c2ccccc21 [Compound 2B, Nα-FMOC-L-phenylalanine] gave a Kd [5, 10] of 1080 ± 507 µM.

In the case of CC(C)(C)Oc1ccc(C[C@H](NC(=O)OCC2c3ccccc3-c3ccccc32)C(=O)O)cc1 [Compound 2A, Nα-FMOC-O-tert-butyl-L-tyrosine], the Kd [5, 10] is reported as 718 ± 79 µM.

In the case of “IGFBP-5: human insulin-like growth factor binding protein 5, SwissProt P 24593”, the “binding of labeled IGF-I to NIH 3T3 cells” value [3] is reported as “inhibited” and the “autophosphorylation of IGF-R by IGF-I” value ([4]; 100 nM IGFBP-5, 10 nM IGF-I) is reported as “inhibited”.

In the case of O=C(N[C@@H](Cc1ccc(OP(=O)(O)O)cc1)C(=O)O)OCC1c2ccccc2-c2ccccc21 [Compound 2, Nα-FMOC-O-phospho-L-tyrosine], the Kd ([5]; average over residues, read-out: ligand in DMSO KD) is reported as 1710 ± 370 µM, the Kd ([5]; average over residues, read-out: ligand in PBS KD) is reported as 2210 ± 400 µM and the Kd [5, 10] is reported as 2780 ± 300 µM. The Kd ([5]; residue K91, read-out: ligand in DMSO KD) was 2420 ± 180 µM, the Kd ([5]; residue K91, read-out: ligand in PBS KD) was 2120 ± 1030 µM and the Kd ([5]; residue L73, read-out: ligand in DMSO KD) was 1310 ± 170 µM. For the same molecule, the Kd ([5]; residue L73, read-out: ligand in PBS KD) was 2930 ± 1410 µM, the Kd ([5]; residue R87, read-out: ligand in DMSO KD) was 1640 ± 120 µM and the Kd ([5]; residue R87, read-out: ligand in PBS KD) was 2360 ± 1000 µM. It also gave a Kd ([5]; residue S85, read-out: ligand in DMSO KD) of 1380 ± 100 µM, a Kd ([5]; residue S85, read-out: ligand in PBS KD) of 2330 ± 940 µM and a Kd ([5]; residue Y50, read-out: ligand in DMSO KD) of 1580 ± 90 µM. The Kd ([5]; residue Y50, read-out: ligand in PBS KD) was 1820 ± 950 µM, the Kd ([5]; residue Y86, read-out: ligand in DMSO KD) was 1900 ± 170 µM and the Kd ([5]; residue Y86, read-out: ligand in PBS KD) was 1720 ± 990 µM.

B1: pegylated IGFBP-1: IGFBP-1 covalently coupled to polyethylene glycol (van den Berg) (conjugate, UniProt P08833 26-259, looked up)
Insulin-like growth …: APWQCAPCSAEKLALCPPVSASCSEVTRSAGCGCCPMCALPLGAACGVATARCARGLSCRALPGEQQPLHALTRGQGACVQESDASAPHAAEAGSPESPESTEITEEELLDNFHLMAPSEEDHSILWDAISTYDGSKALHVTNIKKWKEPCRIELYRVVESLAKAQETSGEEISKFYLPNCNKNGFYHSRQCETSMDGEAGLCWCVYPWNGKRIPGSPEIRGDPNCQIYFNVQN
modifications: PEG
In the case of B1, the “inhibition of tumor growth (response)” value [6] is given as “only partial response”.

B2: IGFBP-1: human insulin-like growth factor binding protein 1, SwissProt P 08833 (protein, UniProt P08833 26-259, looked up)
Insulin-like growth …: APWQCAPCSAEKLALCPPVSASCSEVTRSAGCGCCPMCALPLGAACGVATARCARGLSCRALPGEQQPLHALTRGQGACVQESDASAPHAAEAGSPESPESTEITEEELLDNFHLMAPSEEDHSILWDAISTYDGSKALHVTNIKKWKEPCRIELYRVVESLAKAQETSGEEISKFYLPNCNKNGFYHSRQCETSMDGEAGLCWCVYPWNGKRIPGSPEIRGDPNCQIYFNVQN
In the case of B2, the “growth of MCF-7 cells” value [7] is listed as “inhibits the growth”, the “growth of MDA-MB-435A cells” value [8] is listed as “inhibits the growth” and the “growth of tumors formed MDA-MB-231 cells” value [9] is listed as “inhibits the growth”.
